# Measured values: patent publication US20250075041A1, “COMPOSITIONS FOR SALTWATER-STABLE HYDROGEL ADHESIVES AND METHODS OF USE THEREOF” (Washington University, priority 2023, published 2025)
# Assay: Solubility of copolymers and monomer
# Assay type: physicochemical
substance,measurement,value
Nb-TEG-ZnTPP [compound 22],solubility in H2O,not soluble in H2O
